# Molecular target: Glycogen synthase kinase-3 beta (Homo sapiens, UniProt P49841)
# Experiment: concentration-response blocking of human GSK3B – biochemical, luminescence, cell-free homogeneous, retest, dose response (AID 434954)
# Sequence of Glycogen synthase kinase-3 beta (P49841 whole entry): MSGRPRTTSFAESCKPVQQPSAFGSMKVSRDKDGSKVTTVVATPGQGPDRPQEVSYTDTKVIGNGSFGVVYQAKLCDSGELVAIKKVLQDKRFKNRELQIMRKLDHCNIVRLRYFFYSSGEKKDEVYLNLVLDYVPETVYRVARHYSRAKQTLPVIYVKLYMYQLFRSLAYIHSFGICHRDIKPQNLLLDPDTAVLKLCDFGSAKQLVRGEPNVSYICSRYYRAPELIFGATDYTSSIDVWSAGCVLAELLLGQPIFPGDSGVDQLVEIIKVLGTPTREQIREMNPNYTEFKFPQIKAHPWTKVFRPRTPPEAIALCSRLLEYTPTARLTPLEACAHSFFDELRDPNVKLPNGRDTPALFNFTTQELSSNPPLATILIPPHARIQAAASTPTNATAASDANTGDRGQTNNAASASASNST
row,EC50 [µM],SMILES
1,24,"CCOC(=O)C1C(C)=Nc2ncnn2C1c1cc(Br)ccc1F (centres undefined) [ethyl 7-(5-bromo-2-fluorophenyl)-5-methyl-1,7-dihydro-[1,2,4]triazolo[1,5-a]pyrimidine-6-carboxylate]"
2,> 300,O=c1cc(NCc2ccccc2)nc2n1CCCS2 [MLS000027636]
3,> 300,O=C(CSc1nnc(CNC(=O)c2c(F)cccc2F)o1)NCc1ccc(F)cc1
4,> 300,"NC(=O)c1ncn([C@@H]2O[C@H](CO)[C@@H](O)[C@H]2O)c1O [1-[(2R,3R,4S,5R)-5-(hydroxymethyl)-3,4-bis(oxidanyl)oxolan-2-yl]-5-oxidanyl-imidazole-4-carboxamide]"
5,10.1,"COc1cc(CN=Nc2ccc(C(F)(F)F)cn2)ccc1O [(4E)-2-methoxy-4-[[[5-(trifluoromethyl)-2-pyridinyl]hydrazo]methylidene]-1-cyclohexa-2,5-dienone]"
6,> 300,COc1ccc(CCNc2c(C=O)c(=O)[nH]c3ccccc23)cc1OC
7,75,CCn1c(SCC(=O)Nc2ccc(Br)cn2)nnc1C1CC1 [SMR000671057]
8,> 300,"COc1ccc2nc(NC(=O)CCNC(=O)c3ccccc3Cl)sc2c1 [2-chloro-N-[3-[(6-methoxy-1,3-benzothiazol-2-yl)amino]-3-oxopropyl]benzamide]"
9,> 300,COC(=O)COc1ccc2occ(C(C)=O)c2c1
10,64.2,CCCCC(CC)C(=O)Nc1ncc([N+](=O)[O-])s1 (centres undefined) [2-ethyl-N-(5-nitro-2-thiazolyl)hexanamide]
11,> 300,Cc1cccc(C(=O)Nc2ccc(O)c3c(=O)cc(-c4ccccc4Cl)oc23)c1
12,3.62,"Nc1nonc1-n1nnc(C(=O)NN=Cc2ccccc2)c1CN1CCc2ccccc21 [1-(4-amino-1,2,5-oxadiazol-3-yl)-5-(2,3-dihydroindol-1-ylmethyl)-N-[(phenylmethylene)amino]-4-triazolecarboxamide]"
13,2.29,"Nc1nc(NCC2CCCO2)nc(Nc2ccc(Cl)cc2)c1[N+](=O)[O-] (centres undefined) [N'-(4-Chloro-phenyl)-5-nitro-N-(tetrahydro-furan-2-ylmethyl)-pyrimidine-2,4,6-triamine]"
14,21.8,Cc1nc[nH]c1C(=O)NN=Cc1c(Cl)cccc1Cl [MLS001182271]
15,20.3,c1ccc(OCCCn2nnc(-c3ccncc3)n2)cc1 [SMR000008082]
16,4.89,"Nc1nc(Nc2ccccc2)nc(NCc2ccco2)c1[N+](=O)[O-] [4-N-(furan-2-ylmethyl)-5-nitro-2-N-phenylpyrimidine-2,4,6-triamine]"
17,> 300,"CCN(CC)Cc1c(C(=O)OC(C)C)nnn1-c1nonc1N [propan-2-yl 1-(4-azanyl-1,2,5-oxadiazol-3-yl)-5-(diethylaminomethyl)-1,2,3-triazole-4-carboxylate]"
18,> 300,"Cc1c(C(=O)NN=Cc2ccccn2)nnn1-c1nonc1N [1-(4-amino-1,2,5-oxadiazol-3-yl)-5-methyl-N-(pyridin-2-ylmethylideneamino)triazole-4-carboxamide]"
19,> 300,O=c1oc(-c2cccs2)nc2sc3c(c12)CCC3 [MLS000107331]
20,> 300,COc1cccc(C(=O)Nc2nc3ccc(S(C)(=O)=O)cc3s2)c1 [SMR000280607]
21,> 300,O=C(O)c1cccc(-c2ccc(CN=Nc3ccc([N+](=O)[O-])cc3)o2)c1 [MLS000777078]
22,> 300,CCOC(=O)c1cnc2ccc(OC)cc2c1NCCc1ccc(OC)c(OC)c1
23,> 300,"CCCOc1cc(C)nc(-c2ccccc2O)n1 [(6E)-6-(6-methyl-4-propoxy-1H-pyrimidin-2-ylidene)-1-cyclohexa-2,4-dienone]"
24,> 300,CCOc1ccccc1CNC(=O)CCn1ccc2cc(S(=O)(=O)N3CCCCC3)ccc21 [SMR000629632]

row,EC50 [µM],SMILES
1,127,"COC(=O)c1nnn(-c2nonc2N)c1CSc1nc2ccccc2o1 [methyl 1-(4-amino-1,2,5-oxadiazol-3-yl)-5-[(1,3-benzoxazol-2-ylthio)methyl]-1H-1,2,3-triazole-4-carboxylate]"
2,> 300,CCCCc1cc(=O)oc2cc(C)cc(OCC(=O)O)c12 [2-(4-butyl-7-methyl-2-oxochromen-5-yl)oxyacetic acid]
3,> 300,COc1cc(CN=Nc2ccc([N+](=O)[O-])cc2)ccc1OCC(=O)Nc1ccc(C)c(C)c1 [MLS000537060]
4,38.2,O=NCc1ccc(Oc2cccc(Cl)c2)c([N+](=O)[O-])c1 [MLS000694755]
5,> 300,O=C(Nc1cccc(NC(=O)c2ccc3c(c2)OCO3)c1)c1ccccc1 [MLS000706176]
6,1.7,Nc1nc(Nc2ccc(Cl)cc2)nc(NCCO)c1[N+](=O)[O-] [2-[[6-amino-2-(4-chloroanilino)-5-nitropyrimidin-4-yl]amino]ethanol]
7,> 300,"CCOC(=O)c1c(C)[nH]c(C)c1S(=O)(=O)NCC(=O)Nc1ccccn1 [ethyl 2,5-dimethyl-4-[[2-oxo-2-(pyridin-2-ylamino)ethyl]sulfamoyl]-1H-pyrrole-3-carboxylate]"
8,> 300,"O=[N+]([O-])c1cc(/C=N/n2cnnc2)ccc1N1CCCC1 [1-[3-nitro-4-(1-pyrrolidinyl)phenyl]-N-(1,2,4-triazol-4-yl)methanimine]"
9,28.6,"C/C(C=NNC(=O)c1nnn(-c2nonc2N)c1CN1CCCCC1)=C\c1ccccc1 [1-(4-azanyl-1,2,5-oxadiazol-3-yl)-N-[[(E)-2-methyl-3-phenyl-prop-2-enylidene]amino]-5-(piperidin-1-ylmethyl)-1,2,3-triazole-4-carboxamide]"
10,> 300,CC1(C)CC(=O)C=C(Nc2ccccc2F)C1 [SMR000105669]
11,> 300,O=C(CSc1ccc(F)cc1)Nc1ccc(N2CCOCC2)cc1 [2-(4-fluorophenyl)sulfanyl-N-(4-morpholin-4-ylphenyl)ethanamide]
12,38,CN(C)CCCNc1nc(N)c([N+](=O)[O-])c(NCc2ccccc2)n1 [MLS001165050]
13,17.7,O=C(CSCCc1ccccn1)Nc1ccc(Br)cn1
14,> 300,"COc1ccc(Nc2nc(NCc3ccco3)nc(N)c2[N+](=O)[O-])cc1 [2-N-(furan-2-ylmethyl)-4-N-(4-methoxyphenyl)-5-nitropyrimidine-2,4,6-triamine]"
15,14,Nc1ncnc(N2CCc3ccccc32)c1[N+](=O)[O-] [SMR000323059]
16,15.1,N#Cc1ccc(CSc2nnc(-c3ccncc3)o2)cc1 [MLS000687325]
17,> 300,COCc1c(C(N)=O)nnn1-c1nonc1N [MLS000089737]
18,> 300,Cc1ccc(NC(=O)C2CCN(S(=O)(=O)c3ccc4c(c3)NC(=O)C(C)S4)CC2)c(Cl)c1 (centres undefined) [SMR000630224]
19,> 300,COc1ccc(Nc2nc(NCCN3CCOCC3)nc(Nc3ccc(OC)cc3)n2)cc1
20,1.04,COc1ccc(C(=O)c2sc(Nc3ccccc3)nc2N)cc1
21,> 300,CC(=O)Oc1cc(C)cc2oc(=O)cc(-c3ccccc3)c12
22,> 300,COc1ccc(C(=O)c2ccsc2N)cc1 [MLS001166080]
23,> 300,CCN1CCN(Cc2ccc(NC(=O)c3ccc(C)c(/C=C/c4cnc(Nc5cc(N6CCNCC6)nc(C)n5)cn4)c3)cc2C(F)(F)F)CC1 [SMR000718284]
24,9.98,O=C(Nc1ccsc1C(=O)NC1CC1)c1ccccc1 [MLS000546913]

row,SMILES,EC50 [µM]
1,COc1ccc(CC(=O)N2C[C@H]3C[C@@H](C2)c2cccc(=O)n2C3)cc1 [SMR000646314],> 300
